# Results: patent US8394952B2 (Vertex Pharmaceuticals Incorporated, priority 2006, dated 2013)
# Biological target: Plk1 (Homo sapiens, UniProt P53350)
# Experiment: biochemical
# Plk1, sequence (P53350 20-338): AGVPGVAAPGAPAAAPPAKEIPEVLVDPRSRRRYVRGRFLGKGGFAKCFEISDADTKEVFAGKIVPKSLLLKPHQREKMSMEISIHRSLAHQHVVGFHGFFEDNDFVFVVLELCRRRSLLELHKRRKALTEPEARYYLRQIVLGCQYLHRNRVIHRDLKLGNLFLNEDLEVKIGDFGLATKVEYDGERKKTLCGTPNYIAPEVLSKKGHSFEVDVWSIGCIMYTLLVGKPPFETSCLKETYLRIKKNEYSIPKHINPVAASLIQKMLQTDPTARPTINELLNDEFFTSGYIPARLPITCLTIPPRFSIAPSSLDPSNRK
row,Ki,Compound
1,10 to 100 nM,"CN1C(=O)C(C)(C)CN(C2CCCC2)c2nc(Nc3ccc(N)cc3)ncc21 [Compound I-117, 2-(4-aminophenylamino)-9-cyclopentyl-8,9-dihydro-5,7,7-trimethyl-5H-pyrimido[4,5-b][1,4]diazepin-6(7H)-one]"
2,< 10 nM,"CCc1cc(C(=O)NC)ccc1Nc1ncc2c(n1)N(C1CCCC1)CC(C)(C)C(=O)N2C [Compound I-118, 4-(9-cyclopentyl-6,7,8,9-tetrahydro-5,7,7-trimethyl-6-oxo-5H-pyrimido[4,5-b][1,4]diazepin-2-ylamino)-3-ethyl-N-methylbenzamide]"
3,< 10 nM,"CC[C@H]1CN(C2CCCC2)c2nc(Nc3ccc(C(=O)NC4CCC4)cc3OC)ncc2N(C)C1=O [Compound I-119, 4-((S)-9-cyclopentyl-7-ethyl-6,7,8,9-tetrahydro-5-methyl-6-oxo-5H-pyrimido[4,5-b][1,4]diazepin-2-ylamino)-N-cyclobutyl-3-methoxybenzamide]"
4,10 to 100 nM,"COc1cc(C(=O)O)ccc1Nc1ncc2c(n1)N(C1CCCC1)CC(C)(C)C(=O)N2C [Compound I-120, 4-(9-cyclopentyl-6,7,8,9-tetrahydro-5,7,7-trimethyl-6-oxo-5H-pyrimido[4,5-b][1,4]diazepin-2-ylamino)-3-methoxybenzoic acid]"
5,10 to 100 nM,"CNC(=O)c1ccc(Nc2ncc3c(n2)N(Cc2ccccc2)CC(C)(C)C(=O)N3C)c(OC)c1 [Compound I-122, 4-(9-benzyl-6,7,8,9-tetrahydro-5,7,7-trimethyl-6-oxo-5H-pyrimido[4,5-b][1,4]diazepin-2-ylamino)-3-methoxy-N-methylbenzamide]"
6,< 10 nM,"CNC(=O)c1ccc(Nc2ncc3c(n2)N(CC2CCC2)CC(C)(C)C(=O)N3C)c(OC)c1 [Compound I-123, 4-(9-(cyclobutylmethyl)-6,7,8,9-tetrahydro-5,7,7-trimethyl-6-oxo-5H-pyrimido[4,5-b][1,4]diazepin-2-ylamino)-3-methoxy-N-methylbenzamide]"
7,10 to 100 nM,"CN1C(=O)C(C)(C)CN(C2CCCC2)c2nc(Nc3cccc4c3CNC4=O)ncc21 [Compound I-124, 2-(1-oxoisoindolin-4-ylamino)-9-cyclopentyl-8,9-dihydro-5,7,7-trimethyl-5H-pyrimido[4,5-b][1,4]diazepin-6(7H)-one]"
8,10 to 100 nM,"CN1C(=O)Cc2cc(Nc3ncc4c(n3)N(C3CCCC3)CC(C)(C)C(=O)N4C)ccc21 [Compound I-125, 2-(1-methyl-2-oxoindolin-5-ylamino)-9-cyclopentyl-8,9-dihydro-5,7,7-trimethyl-5H-pyrimido[4,5-b][1,4]diazepin-6(7H)-one]"
9,< 10 nM,"COc1cc(C(=O)NC2CCCC2)ccc1Nc1ncc2c(n1)N(C1CCCC1)CC(C)(C)C(=O)N2C [Compound I-129, 4-(9-cyclopentyl-6,7,8,9-tetrahydro-5,7,7-trimethyl-6-oxo-5H-pyrimido[4,5-b][1,4]diazepin-2-ylamino)-N-cyclopentyl-3-methoxybenzamide]"
10,< 10 nM,"COc1cc(C(=O)NC(C)(C)C)ccc1Nc1ncc2c(n1)N(C1CCCC1)CC(C)(C)C(=O)N2C [Compound I-130, 4-(9-cyclopentyl-6,7,8,9-tetrahydro-5,7,7-trimethyl-6-oxo-5H-pyrimido[4,5-b][1,4]diazepin-2-ylamino)-N-tert-butyl-3-methoxybenzamide]"
11,< 10 nM,"COc1cc(C(=O)NCC2CC2)ccc1Nc1ncc2c(n1)N(C1CCCC1)CC(C)(C)C(=O)N2C [Compound I-131, 4-(9-cyclopentyl-6,7,8,9-tetrahydro-5,7,7-trimethyl-6-oxo-5H-pyrimido[4,5-b][1,4]diazepin-2-ylamino)-N-(cyclopropylmethyl)-3-methoxybenzamide]"

# The remaining lines, values behind:
row,Compound,Ki
1,"COc1ccccc1Nc1ncc2c(n1)N(C1CCCC1)CC(C)(C)C(=O)N2C [Compound I-102, 2-(2-methoxyphenylamino)-9-cyclopentyl-8,9-dihydro-5,7,7-trimethyl-5H-pyrimido[4,5-b][1,4]diazepin-6(7H)-one]",10 to 100 nM
2,"COC(=O)Nc1ccc(Nc2ncc3c(n2)N(C2CCCC2)CC(C)(C)C(=O)N3C)c(OC)c1 [Compound I-103, Methyl 4-(9-cyclopentyl-5,7,7-trimethyl-6-oxo-6,7,8,9-tetrahydro-5H-pyrimido[4,5-b][1,4]diazepin-2-ylamino)-3-methoxyphenylcarbamate]",< 10 nM
3,"COCC(=O)Nc1ccc(Nc2ncc3c(n2)N(C2CCCC2)CC(C)(C)C(=O)N3C)c(OC)c1 [Compound I-104, N-(4-(9-cyclopentyl-5,7,7-trimethyl-6-oxo-6,7,8,9-tetrahydro-5H-pyrimido[4,5-b][1,4]diazepin-2-ylamino)-3-methoxyphenyl)-2-methoxyacetamide]",< 10 nM
4,COc1cc(C(=O)NCC(F)(F)F)ccc1Nc1ncc2c(n1)N(C1CCCC1)CC(C)(C)C(=O)N2C [Compound I-105],< 10 nM
5,"CN1C(=O)C(C)(C)CN(C2CCCC2)c2nc(Nc3ccc4[nH]c(=O)[nH]c4c3)ncc21 [Compound I-108, 2-(2,3-dihydro-2-oxo-1H-benzo[d]imidazol-6-ylamino)-9-cyclopentyl-8,9-dihydro-5,7,7-trimethyl-5H-pyrimido[4,5-b][1,4]diazepin-6(7H)-one]",< 10 nM
6,"CN1C(=O)C(C)(C)CN(C2CCCC2)c2nc(Nc3ccc4[nH][nH]c(=O)c4c3)ncc21 [Compound I-109, 2-(2,3-dihydro-3-oxo-1H-indazol-5-ylamino)-9-cyclopentyl-8,9-dihydro-5,7,7-trimethyl-5H-pyrimido[4,5-b][1,4]diazepin-6(7H)-one]",10 to 100 nM
7,"CN1C(=O)C(C)(C)CN(C2CCCC2)c2nc(Nc3ccc4c(cnn4C)c3)ncc21 [Compound I-110, 2-(1-methyl-1H-indazol-5-ylamino)-9-cyclopentyl-8,9-dihydro-5,7,7-trimethyl-5H-pyrimido[4,5-b][1,4]diazepin-6(7H)-one]",10 to 100 nM
8,"CC(=O)Nc1cccc(Nc2ncc3c(n2)N(C2CCCC2)CC(C)(C)C(=O)N3C)c1 [Compound I-111, N-(3-(9-cyclopentyl-6,7,8,9-tetrahydro-5,7,7-trimethyl-6-oxo-5H-pyrimido[4,5-b][1,4]diazepin-2-ylamino)phenyl)acetamide]",10 to 100 nM
9,"CC(=O)Nc1ccc(Nc2ncc3c(n2)N(C2CCCC2)CC(C)(C)C(=O)N3C)cc1 [Compound I-112, N-(4-(9-cyclopentyl-6,7,8,9-tetrahydro-5,7,7-trimethyl-6-oxo-5H-pyrimido[4,5-b][1,4]diazepin-2-ylamino)phenyl)acetamide]",10 to 100 nM
10,"CC[C@H]1CN(C2CCCC2)c2nc(Nc3ccc(C(=O)NC4CCN(C)CC4)cc3OC)ncc2N(C)C1=O [Compound I-113, 4-((S)-9-cyclopentyl-7-ethyl-6,7,8,9-tetrahydro-5-methyl-6-oxo-5H-pyrimido[4,5-b][1,4]diazepin-2-ylamino)-3-methoxy-N-(1-methylpiperidin-4-yl)benzamide]",< 10 nM
11,"CN1C(=O)C(C)(C)CN(C2CCCC2)c2nc(Nc3ccc4[nH]ncc4c3)ncc21 [Compound I-114, 2-(1H-indazo-5-ylamino)-9-cyclopentyl-8,9-dihydro-5,7,7-trimethyl-5H-pyrimido[4,5-b][1,4]diazepin-6(7H)-one]",10 to 100 nM
12,"CN1C(=O)C(C)(C)CN(C2CCCC2)c2nc(Nc3cccc(N)c3)ncc21 [Compound I-116, 2-(3-aminophenylamino)-9-cyclopentyl-8,9-dihydro-5,7,7-trimethyl-5H-pyrimido[4,5-b][1,4]diazepin-6(7H)-one]",10 to 100 nM
